According to patent US20260021103A1, “IKZF2 AND CK1-ALPHA DEGRADING COMPOUNDS AND USES THEREOF” (President and Fellows of Harvard College, priority 2022, published 2026):

How the values were obtained:
[1] = target: T1, CK1α (Homo sapiens, UniProt P48729+Q96SW2); assay: Flow cytometry for measuring degradation, HEK293T GFP-POI reporter cells (CK1α); assay type: cell-based; settings: for CK1α % degradation at 100 nM / CK1α % degradation at 1 μM: 24 h, HEK293T GFP reporter; for Dmax: CK1, read-out: Dmax CK1a (%); for Dmax / DC50: Table 3; for DC50: read-out: DC50 CK1a
T1 construct: expressed in transfected cells; host or cells: HEK293T (lentiviral transduction, puromycin selection, FACS sorting)
T1 sequence (P48729 whole entry): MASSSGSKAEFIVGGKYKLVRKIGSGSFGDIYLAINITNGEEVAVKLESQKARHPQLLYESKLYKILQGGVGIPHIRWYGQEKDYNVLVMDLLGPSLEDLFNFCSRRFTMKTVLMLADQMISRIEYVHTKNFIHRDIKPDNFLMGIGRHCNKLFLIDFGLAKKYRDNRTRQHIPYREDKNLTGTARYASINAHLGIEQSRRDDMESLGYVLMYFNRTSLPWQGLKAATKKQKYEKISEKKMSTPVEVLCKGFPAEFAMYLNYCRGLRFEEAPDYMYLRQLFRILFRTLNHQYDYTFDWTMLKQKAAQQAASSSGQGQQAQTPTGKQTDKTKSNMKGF
T1 sequence (Q96SW2 whole entry): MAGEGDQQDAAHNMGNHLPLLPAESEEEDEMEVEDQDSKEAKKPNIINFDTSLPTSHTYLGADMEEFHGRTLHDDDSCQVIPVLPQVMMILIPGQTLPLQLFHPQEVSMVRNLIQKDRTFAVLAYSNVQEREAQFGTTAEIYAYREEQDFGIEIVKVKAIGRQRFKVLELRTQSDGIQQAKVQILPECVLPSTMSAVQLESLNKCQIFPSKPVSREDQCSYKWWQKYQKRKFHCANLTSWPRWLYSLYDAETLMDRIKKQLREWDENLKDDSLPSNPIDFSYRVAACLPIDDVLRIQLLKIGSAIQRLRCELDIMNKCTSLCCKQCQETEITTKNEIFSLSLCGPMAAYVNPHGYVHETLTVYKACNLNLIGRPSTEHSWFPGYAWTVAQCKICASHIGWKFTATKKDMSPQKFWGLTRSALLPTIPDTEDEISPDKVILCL
T1 sequence (Q16531 whole entry partner): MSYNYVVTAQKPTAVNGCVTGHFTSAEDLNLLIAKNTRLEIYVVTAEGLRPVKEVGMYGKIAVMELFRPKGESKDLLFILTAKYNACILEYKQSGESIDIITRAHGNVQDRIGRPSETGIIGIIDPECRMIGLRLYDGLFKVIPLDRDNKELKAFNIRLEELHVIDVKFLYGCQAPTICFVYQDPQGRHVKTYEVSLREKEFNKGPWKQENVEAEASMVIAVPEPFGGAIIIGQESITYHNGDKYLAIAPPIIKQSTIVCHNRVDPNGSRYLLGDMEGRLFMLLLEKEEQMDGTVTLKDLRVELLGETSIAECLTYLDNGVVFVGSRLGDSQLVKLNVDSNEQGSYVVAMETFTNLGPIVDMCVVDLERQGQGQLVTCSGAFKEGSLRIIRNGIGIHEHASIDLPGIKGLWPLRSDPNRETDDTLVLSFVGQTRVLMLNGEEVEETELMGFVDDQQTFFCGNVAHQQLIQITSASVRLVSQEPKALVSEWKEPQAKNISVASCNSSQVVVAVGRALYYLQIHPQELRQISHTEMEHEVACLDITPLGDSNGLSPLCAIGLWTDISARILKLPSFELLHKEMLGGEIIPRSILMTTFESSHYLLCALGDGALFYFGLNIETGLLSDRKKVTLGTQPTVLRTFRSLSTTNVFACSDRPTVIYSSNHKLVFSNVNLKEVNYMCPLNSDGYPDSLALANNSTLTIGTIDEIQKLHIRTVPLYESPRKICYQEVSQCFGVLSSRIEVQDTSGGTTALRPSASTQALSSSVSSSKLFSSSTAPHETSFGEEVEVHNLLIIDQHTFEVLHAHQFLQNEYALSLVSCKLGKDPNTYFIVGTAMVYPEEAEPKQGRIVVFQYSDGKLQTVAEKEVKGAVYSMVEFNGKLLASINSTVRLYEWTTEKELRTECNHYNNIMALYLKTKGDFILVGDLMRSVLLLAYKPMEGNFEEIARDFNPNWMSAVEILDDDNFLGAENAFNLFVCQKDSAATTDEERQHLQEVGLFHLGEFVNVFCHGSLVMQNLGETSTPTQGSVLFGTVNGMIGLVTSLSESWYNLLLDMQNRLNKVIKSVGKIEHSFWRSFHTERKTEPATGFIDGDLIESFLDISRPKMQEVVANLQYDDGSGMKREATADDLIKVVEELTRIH

[2] = In vitro solubility in DMSO; assay type: physicochemical; settings: DMSO, organic solvent or mixture
[3] = target: T2, IKZF1 (Homo sapiens, UniProt Q13422+Q96SW2); assay: Flow cytometry for measuring degradation, HEK293T GFP-POI reporter cells (IKZF1); assay type: cell-based; settings: for IKZF1% degradation at 100 nM / IKZF1% degradation at 1 μM: 24 h, HEK293T GFP reporter; for Dmax: HEK-293T
T2 construct: expressed in transfected cells; host or cells: HEK293T (lentiviral transduction, puromycin selection, FACS sorting)
T2 sequence (Q13422 whole entry): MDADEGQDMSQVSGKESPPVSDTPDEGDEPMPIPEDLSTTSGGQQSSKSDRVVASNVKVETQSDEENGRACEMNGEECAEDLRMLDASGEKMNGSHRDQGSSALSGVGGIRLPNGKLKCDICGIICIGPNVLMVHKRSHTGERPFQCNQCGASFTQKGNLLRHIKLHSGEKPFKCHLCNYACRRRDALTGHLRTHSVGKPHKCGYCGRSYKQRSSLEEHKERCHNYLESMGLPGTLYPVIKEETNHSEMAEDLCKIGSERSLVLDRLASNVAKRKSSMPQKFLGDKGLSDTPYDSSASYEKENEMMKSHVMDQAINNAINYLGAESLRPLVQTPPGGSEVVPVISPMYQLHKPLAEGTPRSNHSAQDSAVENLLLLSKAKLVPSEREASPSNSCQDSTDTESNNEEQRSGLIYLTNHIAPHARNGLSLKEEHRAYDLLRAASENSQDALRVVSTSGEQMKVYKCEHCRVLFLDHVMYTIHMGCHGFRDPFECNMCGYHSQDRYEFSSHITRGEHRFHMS
T2 sequence (Q96SW2 whole entry): as the sequence (Q96SW2 whole entry) above
T2 sequence (Q16531 whole entry partner): as the sequence (Q16531 whole entry partner) above

[4] = target: GSPT1 (Homo sapiens, UniProt P15170+Q96SW2); assay: Flow cytometry for measuring degradation, HEK293T GFP-POI reporter cells (GSPT1); assay type: cell-based; design: expressed in transfected cells; host or cells: HEK293T; settings: for GSPT1% degradation at 100 nM / GSPT1% degradation at 1 μM: 24 h, HEK293T GFP reporter; for Dmax: HEK-293T
GSPT1, sequence (P15170 whole entry): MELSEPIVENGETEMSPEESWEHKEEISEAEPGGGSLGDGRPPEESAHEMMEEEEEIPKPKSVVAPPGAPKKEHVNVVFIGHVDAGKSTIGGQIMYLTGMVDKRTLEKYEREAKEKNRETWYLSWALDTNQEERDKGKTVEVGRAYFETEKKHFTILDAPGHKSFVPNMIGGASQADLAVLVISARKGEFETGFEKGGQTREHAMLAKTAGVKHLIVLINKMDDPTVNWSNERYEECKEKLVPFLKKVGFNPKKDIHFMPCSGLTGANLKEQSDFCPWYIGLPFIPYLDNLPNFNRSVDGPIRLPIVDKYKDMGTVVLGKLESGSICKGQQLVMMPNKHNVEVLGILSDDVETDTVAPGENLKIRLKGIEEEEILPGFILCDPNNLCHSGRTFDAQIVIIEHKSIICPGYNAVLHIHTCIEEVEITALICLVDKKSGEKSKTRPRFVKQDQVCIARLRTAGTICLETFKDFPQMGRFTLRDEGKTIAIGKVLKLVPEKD
GSPT1, sequence (Q96SW2 whole entry): as the sequence (Q96SW2 whole entry) above
GSPT1, sequence (Q16531 whole entry partner): as the sequence (Q16531 whole entry partner) above

[5] = target: T3, IKZF2 (Homo sapiens, UniProt Q96SW2+Q9UKS7); assay: Flow cytometry for measuring degradation, HEK293T GFP-POI reporter cells (IKZF2); assay type: cell-based; settings: for IKZF2% degradation at 100 nM / IKZF2% degradation at 1 μM: 24 h, HEK293T GFP reporter; for Dmax: HEK-293T; for Dmax / DC50: Table 3
T3 construct: expressed in transfected cells; host or cells: HEK293T (lentiviral transduction, puromycin selection, FACS sorting)
T3 sequence (Q9UKS7 whole entry): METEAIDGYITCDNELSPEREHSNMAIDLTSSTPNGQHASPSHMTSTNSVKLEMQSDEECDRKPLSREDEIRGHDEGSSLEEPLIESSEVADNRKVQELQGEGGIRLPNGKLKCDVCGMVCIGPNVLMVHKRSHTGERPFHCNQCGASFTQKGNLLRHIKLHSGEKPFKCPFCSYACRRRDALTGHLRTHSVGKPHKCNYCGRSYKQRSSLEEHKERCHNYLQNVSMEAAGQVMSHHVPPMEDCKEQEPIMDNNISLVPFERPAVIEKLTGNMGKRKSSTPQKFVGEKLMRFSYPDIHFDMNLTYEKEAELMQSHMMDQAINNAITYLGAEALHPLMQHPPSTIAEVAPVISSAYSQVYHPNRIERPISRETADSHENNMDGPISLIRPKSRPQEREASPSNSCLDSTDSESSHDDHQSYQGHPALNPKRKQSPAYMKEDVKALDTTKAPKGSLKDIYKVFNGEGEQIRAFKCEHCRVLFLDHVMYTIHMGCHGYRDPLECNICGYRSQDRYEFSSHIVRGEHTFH
T3 sequence (Q96SW2 whole entry): as the sequence (Q96SW2 whole entry) above
T3 sequence (Q16531 whole entry partner): as the sequence (Q16531 whole entry partner) above

[6] = tested on: CK1α and/or IKZF2; assay: Panel of reporter cell lines (HEK293T cells expressing protein tagged with eGFP), substrate scope; assay type: cell-based; settings: 100 nM or 1 μM

Structure (SMILES)	CK1α % degradation at 100 nM [1] [%]	CK1α % degradation at 1 μM [1] [%]	Dmax [1] [%]	DC50 [1] [nM]	solubility [2] [mM]	IKZF1% degradation at 100 nM [3] [%]	IKZF1% degradation at 1 μM [3] [%]	Dmax ([3]; Table 3) [%]	GSPT1% degradation at 100 nM [4] [%]	GSPT1% degradation at 1 μM [4] [%]	Dmax ([4]; Table 3) [%]	IKZF2% degradation at 100 nM [5] [%]	IKZF2% degradation at 1 μM [5] [%]	Dmax [5] [%]	DC50 [5] [nM]	DC50 ([3]; Table 3) [nM]	degradation activity for CK1α and/or IKZF2, while sparing IKZF1 and/or GSPT1 (in words) [6]	DC50 ([4]; Table 3) [nM]
N#Cc1ccc2cc(C(=O)Nc3ccc4c(c3)CN(C3CCC(=O)NC3=O)C4=O)ccc2c1 (stereo not shown) [DEG-91, 6-cyano-N-(2-(2,6-dioxopiperidin-3-yl)-1-oxoisoindolin-5-yl)-2-naphthamide]	74.6	80.3	81.2	2.6	> 100	8.5	14.4	20.6	9.7	11.5	14.8	89.4	95.3	96.6	7			
CN1C(=O)CCc2cc(C(=O)Nc3ccc4c(c3)CN(C3CCC(=O)NC3=O)C4=O)ccc21 (stereo not shown) [DEG-97, N-(2-(2,6-dioxopiperidin-3-yl)-1-oxoisoindolin-5-yl)-1-methyl-2-oxo-1,2,3,4-tetrahydroquinoline-6-carboxamide]	60.1	74.1	78	32	> 100	2.4	4.1	13.1	1.6	−3.4	5.6	52.6	87.1	95.9	83.1			
C[C@H](NC(=O)c1ccccc1)C(=O)Nc1ccc2c(c1)CN(C1CCC(=O)NC1=O)C2=O (stereo partly drawn) [DEG-98, N-((2S)-1-((2-(2,6-dioxopiperidin-3-yl)-1-oxoisoindolin-5-yl)amino)-1-oxopropan-2-yl)benzamide]	18.2	41.2	54.1	175	> 100	50.9	79.7	88	5.5	6.2	0	35.8	68.1	80.5	143	72		
O=C1CCC(N2Cc3cc(NC(=O)Cc4cccc5ccccc45)ccc3C2=O)C(=O)N1 (stereo not shown) [DEG-67, N-(2-(2,6-dioxopiperidin-3-yl)-1-oxoisoindolin-5-yl)-2-(naphthalen-1-yl)acetamide]	64.4 ± 0.5	62.8 ± 0.5				97.2 ± 0.1	98.1 ± 0.1		25.3 ± 0.5	30.9 ± 1		92.2 ± 0.1	94.6 ± 0				good degradation activity	
CSc1ccc2cc(C(=O)Nc3ccc4c(c3)CN(C3CCC(=O)NC3=O)C4=O)ccc2c1 (stereo not shown) [DEG-95, N-(2-(2,6-dioxopiperidin-3-yl)-1-oxoisoindolin-5-yl)-6-(methylthio)-2-naphthamide]	76.5	80.1	78.9	2.8	> 100	7.7	9.1	17.2	16.3	24.8	33.5	86.7	94.1	95.4	10.4			1190
COCOc1ccc2cc(C(=O)Nc3ccc4c(c3)CN(C3CCC(=O)NC3=O)C4=O)ccc2c1 (stereo not shown) [DEG-92, N-(2-(2,6-dioxopiperidin-3-yl)-1-oxoisoindolin-5-yl)-6-(methoxymethoxy)-2-naphthamide]	76.2	80.1	80.2	2.9	> 100	6.7	8.3	14.5	5.3	5.0	12.8	87.6	94.5	95.9	7.9			
O=C1CCC(N2Cc3cc(NC(=O)c4ccc(Sc5ccccc5)cc4)ccc3C2=O)C(=O)N1 (stereo not shown) [DEG-73, N-(2-(2,6-dioxopiperidin-3-yl)-1-oxoisoindolin-5-yl)-4-(phenylthio)benzamide]	56.6 ± 1.2	60.4 ± 0.6				11.7 ± 0.3	26.3 ± 0.6		11.1 ± 1.4	19.8 ± 0.8		67.4 ± 1.2	87.8 ± 0.3					
O=C1CCC(N2Cc3cc(NC(=O)c4ccc5c(c4)OCO5)ccc3C2=O)C(=O)N1 (stereo not shown) [DEG-54, N-(2-(2,6-dioxopiperidin-3-yl)-1-oxoisoindolin-5-yl)benzo[d][1,3]dioxole-5-carboxamide]	33.5 ± 10	57.6 ± 3.5				7.4 ± 0.8	9.7 ± 1.4		5.2 ± 1.5	3.3 ± 1.7		49.2 ± 0.2	84.1 ± 0.3					
O=C1CCC(N2Cc3cc(NC(=O)c4cccc(C(=O)c5ccccc5)c4)ccc3C2=O)C(=O)N1 (stereo not shown) [DEG-51, 3-benzoyl-N-(2-(2,6-dioxopiperidin-3-yl)-1-oxoisoindolin-5-yl)benzamide]	63.7 ± 1.1	69.8 ± 0.5				59.5 ± 0.2	84 ± 0.2		9 ± 1.6	13.7 ± 0.3		82.6 ± 0.3	93.9 ± 0					
COc1ccc2c(c1)C=C(C(=O)Nc1ccc3c(c1)CN(C1CCC(=O)NC1=O)C3=O)CO2 (stereo not shown) [DEG-78, N-(2-(2,6-dioxopiperidin-3-yl)-1-oxoisoindolin-5-yl)-6-methoxy-2H-chromene-3-carboxamide]	65.5 ± 1.3	69.5 ± 1.4				15.7 ± 1.1	33.9 ± 0.9		9.2 ± 0.8	14.4 ± 0.5		75 ± 0.8	90.3 ± 0					
COc1ccc(/C=C/C(=O)Nc2ccc3c(c2)CN(C2CCC(=O)NC2=O)C3=O)cc1 (stereo not shown) [DEG-60, (E)-N-(2-(2,6-dioxopiperidin-3-yl)-1-oxoisoindolin-5-yl)-3-(4-methoxyphenyl)acrylamide]	64.3 ± 1.3	68.3 ± 1.2				17.6 ± 0.8	40.3 ± 0.9		11.6 ± 1.4	16.5 ± 2		74.7 ± 0.3	89.5 ± 0.2					
O=C1CCC(N2Cc3cc(NC(=O)C4=Cc5ccc(OC(F)(F)F)cc5OC4)ccc3C2=O)C(=O)N1 (stereo not shown) [DEG-82, N-(2-(2,6-dioxopiperidin-3-yl)-1-oxoisoindolin-5-yl)-7-(trifluoromethoxy)-2H-chromene-3-carboxamide]	58 ± 2.2	62.7 ± 1.4				10.6 ± 1.2	19.9 ± 0.3		6.1 ± 0.3	12.3 ± 0.9		85.4 ± 0	93.3 ± 0.1					
CC(=O)N1CCC[C@H]1C(=O)Nc1ccc2c(c1)CN(C1CCC(=O)NC1=O)C2=O (stereo partly drawn) [DEG-96, (2S)-1-acetyl-N-(2-(2,6-dioxopiperidin-3-yl)-1-oxoisoindolin-5-yl)pyrrolidine-2-carboxamide]	9.2	26.3	40.3	503	> 100	3.6	5.0	8.3	8.6	10.1	14.2	21.4	57.0	79.5	340			
COc1cc(Oc2ccccc2)ccc1C(=O)Nc1ccc2c(c1)CN(C1CCC(=O)NC1=O)C2=O (stereo not shown) [DEG-75, N-(2-(2,6-dioxopiperidin-3-yl)-1-oxoisoindolin-5-yl)-2-methoxy-4-phenoxybenzamide]	48.1 ± 2.2	64 ± 1.5				2.4 ± 1.1	7 ± 0.4		0.4 ± 1.4	12.6 ± 1.2		54.6 ± 1.1	83.3 ± 0.3					
